Consider 4 molecules from US20020132782A1, “9-amino erythromycin derivatives with antibacterial activity” (priority 2001, published 2002).

In brackets after ≈: the same amount, converted by molar mass.

Test in all cases: In vitro assay of antibacterial activity (agar dilution MIC)
Common to all, as to assay type: cell-based

Experiment [1] concerns Streptococcus pyogenes EES61. As to conditions: organism code DD, BHI agar, 35-37° C., 20 to 24 hours. Here is the method: (§1) Representative compounds of the present invention were assayed in vitro for antibacterial activity as follows: Twelve petri dishes containing successive aqueous dilutions of the test compound mixed with 10 mL of sterilized Brain Heart Infusion (BHI) agar (Difco 0418-01-5) were prepared. Each plate was inoculated with 1:100 (or 1:10 for slow-growing strains, such as Micrococcus and Streptococcus) dilutions of up to 32 different microorganisms, using a Steers replicator block. The inoculated plates were incubated at 35-37° C. for 20 to 24 hours. In addition, a control plate, using BHI agar containing no test compound, was prepared and incubated at the beginning and end of each test.
(§2) An additional plate containing a compound having known susceptibility patterns for the organisms being tested and belonging to the same antibiotic class as the test compound was also prepared and incubated as a further control, as well as to provide test-to-test comparability. […] After incubation, each plate was visually inspected. The minimum inhibitory concentration (MIC) was defined as the lowest concentration of drug yielding no growth, a slight haze, or sparsely isolated colonies on the inoculum spot as compared to the growth control.

The test system of experiment [2] is Streptococcus pneumoniae 5649. Conditions: organism code JJ, BHI agar, 35-37° C., 20 to 24 hours. How it is done:
as §1, §2

The test system of experiment [3] is Haemophilus influenzae DILL AMP R. As to conditions: organism code CC, BHI agar, 35-37° C., 20 to 24 hours. Here is the method: as §1, §2
Experiment [4] has as its system Streptococcus pneumoniae ATCC 6303. Conditions: organism code GG, BHI agar, 35-37° C., 20 to 24 hours. Here is the method: as §1, §2
Experiment [5] has as its system Staphylococcus aureus 1775. As to conditions: organism code BB, BHI agar, 35-37° C., 20 to 24 hours. How it is done:
as §1, §2

Experiment [6] has as its system Staphylococcus aureus ATCC 6538P. Conditions: organism code AA, BHI agar, 35-37° C., 20 to 24 hours. Here is the method: as §1, §2
Experiment [7] concerns Streptococcus pyogenes PIU 2548. Conditions: organism code FF, BHI agar, 35-37° C., 20 to 24 hours. Here is the method: as §1, §2
Experiment [8] deals with Streptococcus pneumoniae 5737. Conditions: organism code HH, BHI agar, 35-37° C., 20 to 24 hours. How it is done:
as §1, §2

For experiment [9], the system named is Streptococcus pyogenes 930. Conditions: organism code EE, BHI agar, 35-37° C., 20 to 24 hours. How it is done:
as §1, §2

Consider `CC[C@H]1OC(=O)[C@H](C)[C@@H](O[C@H]2C[C@@](C)(OC)[C@@H](O)[C@H](C)O2)[C@H](C)[C@@H](O[C@@H]2O[C@H](C)C[C@H](N(C)C)[C@H]2O)[C@](C)(O)C[C@@H](C)C(=O)[C@H](C)[C@@H](O)[C@]1(C)O` [Ery. A, Erythromycin A, reference compound], for which the MIC in experiment [1] was 0.06 µg/mL (≈ 0.0818 µM); in experiment [2], 16 µg/mL (≈ 21.8 µM); in experiment [3], 4 µg/mL (≈ 5.45 µM); in experiment [4] it was 0.06 µg/mL (≈ 0.0818 µM); in experiment [5] it was more than 100 µg/mL; in [6] it was 0.2 µg/mL (≈ 0.273 µM). The molecule further registered an MIC in experiment [7] of 32 µg/mL (≈ 43.6 µM).
On to `CCC1OC(=O)C(C)C(=O)C(C)C(OC2OC(C)CC(N(C)C)C2O)C(C)(OCC=Cc2cnc3ccccc3c2)CC(C)C(N)C(C)C(O)C1(C)O` (stereo not drawn) [Example 7, Compound of Formula (II): R^1 is (Quinolin-3-yl)CH═CHCH2; R^2 is Hydrogen; R^3 is Hydrogen; R^4 is Hydrogen; R^5 is Hydrogen; R^p is Hydrogen], for which the MIC in experiment [1] was 0.25 µg/mL; in [2], 1 µg/mL; in [3], 16 µg/mL; in experiment [4], 0.5 µg/mL; in experiment [8], more than 64 µg/mL; in experiment [5], more than 100 µg/mL. The MIC in experiment [6] was 0.78 µg/mL; in [7], 2 µg/mL.
On to `CCC1OC(=O)C(C)C(=O)C(C)C(OC2OC(C)CC(N(C)C)C2O)C(C)(OCC=Cc2cnc3ccccc3c2)CC(C)C2NC(=O)OC(C2C)C1(C)O` (stereo not drawn) [Example 8, Compound of Formula (II): R^1 is (Quinolin-3-yl)CH═CHCH2; R^2 is Hydrogen; R^3 and R^4 together are —C(O)—; R^5 is Hydrogen; R^p is Hydrogen], for which the MIC in experiment [1] is 0.03 µg/mL; in [2], 2 µg/mL; in experiment [3], 16 µg/mL; in experiment [4], 0.03 µg/mL; in experiment [9], more than 128 µg/mL; in [8] it was 128 µg/mL. The values for the MIC in experiment [5], in experiment [6] and in experiment [7] were more than 100 µg/mL, 0.39 µg/mL and 1 µg/mL, respectively.
On to `CCC1OC(=O)C(C)C(=O)C(C)C(OC2OC(C)CC(N(C)C)C2O)C(C)(OCC=Cc2cnc3ccccc3c2)CC(C)C(N)C(C)C2OC(=O)OC12C` (stereo not drawn) [Example 9, Compound of Formula (II): R^1 is (Quinolin-3-yl)CH═CHCH2; R^2 is Hydrogen; R^3 is Hydrogen; R^4 and R^5 are —C(O)—; R^p is Hydrogen], for which the MIC was 1 µg/mL in experiment [1]; 32 µg/mL in [2]; 32 µg/mL in experiment [3]; 2 µg/mL in experiment [4]; more than 128 µg/mL in experiment [9]; more than 128 µg/mL in experiment [8]. In addition, the MIC in experiment [5] is more than 100 µg/mL; in experiment [6] it was 0.2 µg/mL; in experiment [7], more than 128 µg/mL.
